Laboratory results as given in ChEMBL document CHEMBL5338821, “6-Substituted Triazolyl Benzoxaboroles as Selective Carbonic Anhydrase Inhibitors: In Silico Design, Synthesis, and X-ray Crystallography” (J Med Chem, 2023).

Experiments:
[1] = biological target: Carbonic anhydrase 4 (Homo sapiens, UniProt P22748); assay: Inhibition of recombinant human carbonic anhydrase IV assessed as inhibition constant incubated for 15 mins by phenol red dye based stopped-flow CO2 hydration assay
[2] = biological target: Carbonic anhydrase 9 (Homo sapiens, UniProt Q16790); assay: Inhibition of recombinant human carbonic anhydrase IX assessed as inhibition constant incubated for 15 mins by phenol red dye based stopped-flow CO2 hydration assay
[3] = biological target: Carbonic anhydrase 2 (Homo sapiens, UniProt P00918); assay: Inhibition of recombinant human carbonic anhydrase II assessed as inhibition constant incubated for 15 mins by phenol red dye based stopped-flow CO2 hydration assay
[4] = biological target: Carbonic anhydrase 7 (Homo sapiens, UniProt P43166); assay: Inhibition of recombinant human carbonic anhydrase VII assessed as inhibition constant incubated for 15 mins by phenol red dye based stopped-flow CO2 hydration assay
Carbonic anhydrase 7, sequence (P43166 whole entry): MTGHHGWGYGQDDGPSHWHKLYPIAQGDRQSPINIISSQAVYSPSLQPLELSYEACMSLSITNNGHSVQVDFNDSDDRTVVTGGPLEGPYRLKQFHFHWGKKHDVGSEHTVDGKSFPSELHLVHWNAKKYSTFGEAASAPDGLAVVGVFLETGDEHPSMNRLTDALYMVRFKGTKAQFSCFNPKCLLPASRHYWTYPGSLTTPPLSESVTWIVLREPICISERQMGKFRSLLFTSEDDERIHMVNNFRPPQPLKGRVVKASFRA

[5] = biological target: Carbonic anhydrase 1 (Homo sapiens, UniProt P00915); assay: Inhibition of recombinant human carbonic anhydrase I assessed as inhibition constant incubated for 15 mins by phenol red dye based stopped-flow CO2 hydration assay
Carbonic anhydrase 1, sequence (P00915 whole entry): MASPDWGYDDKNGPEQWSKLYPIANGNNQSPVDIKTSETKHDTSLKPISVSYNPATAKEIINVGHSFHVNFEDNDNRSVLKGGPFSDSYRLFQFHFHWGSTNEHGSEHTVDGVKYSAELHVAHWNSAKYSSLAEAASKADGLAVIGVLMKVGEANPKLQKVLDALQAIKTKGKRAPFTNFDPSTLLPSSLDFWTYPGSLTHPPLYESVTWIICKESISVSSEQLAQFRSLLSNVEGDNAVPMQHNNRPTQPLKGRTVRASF

[6] = species on record: Homo sapiens; assay: Selectivity index, ratio of Ki for inhibition of recombinant human carbonic anhydrase I to Ki for inhibition of recombinant human carbonic anhydrase VII
[7] = species on record: Homo sapiens; assay: Selectivity index, ratio of Ki for inhibition of recombinant human carbonic anhydrase II to Ki for inhibition of recombinant human carbonic anhydrase VII
[8] = species on record: Homo sapiens; assay: Selectivity index, ratio of Ki for inhibition of recombinant human carbonic anhydrase II to Ki for inhibition of recombinant human carbonic anhydrase IX
[9] = species on record: Homo sapiens; assay: Selectivity index, ratio of Ki for inhibition of recombinant human carbonic anhydrase I to Ki for inhibition of recombinant human carbonic anhydrase IX

Carbonic anhydrase 4, sequence (P22748 whole entry): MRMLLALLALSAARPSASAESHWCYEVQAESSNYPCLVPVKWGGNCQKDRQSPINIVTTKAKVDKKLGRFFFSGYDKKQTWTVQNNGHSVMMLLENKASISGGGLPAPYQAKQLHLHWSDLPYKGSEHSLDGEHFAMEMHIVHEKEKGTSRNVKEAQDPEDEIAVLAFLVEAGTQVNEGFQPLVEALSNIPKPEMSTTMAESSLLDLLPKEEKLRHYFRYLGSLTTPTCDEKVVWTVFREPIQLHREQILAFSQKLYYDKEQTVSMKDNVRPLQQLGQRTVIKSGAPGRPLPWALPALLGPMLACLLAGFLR

Compound	Ki [1]	Ki [2]	Ki [3]	Ki [4]	Ki [5]	Ratio Ki [6]	Ratio Ki [7]	Ratio Ki [8]	Ratio Ki [9]
[N-]=[N+]=Nc1ccc2c(c1)B(O)OC2	3120 nM	539 nM	350 nM	432 nM	3040 nM				
OB1OCc2ccc(-n3cc(C4CC4)nn3)cc21	3220 nM	389 nM	1080 nM	474 nM	2320 nM				
CC(C)(C)OC(=O)NCc1cn(-c2ccc3c(c2)B(O)OC3)nn1	730 nM	75.2 nM	461 nM	135 nM	737 nM				
O=c1ccc2ccc(OCc3cn(-c4ccc5c(c4)B(O)OC5)nn3)cc2o1	3180 nM	111 nM	375 nM	70.2 nM	2600 nM				
COc1cccc(OCc2cn(-c3ccc4c(c3)B(O)OC4)nn2)c1	1930 nM	32 nM	183 nM	124 nM	1100 nM				
OB1OCc2ccc(-n3cc(COc4ccc(F)cc4)nn3)cc21	1050 nM	28 nM	186 nM	35.6 nM	336 nM	6	6	6	6

More lines, in order of falling Ki [1], values ahead:

Ki [1]	Ki [2]	Ki [3]	Ki [4]	Ki [5]	Ratio Ki [6]	Ratio Ki [7]	Ratio Ki [8]	Ratio Ki [9]	Compound
2480 nM	337 nM	796 nM	441 nM	2510 nM					CCOC(=O)c1cn(-c2ccc3c(c2)B(O)OC3)nn1
1660 nM	52 nM	258 nM	88.1 nM	863 nM					COc1ccc(OCc2cn(-c3ccc4c(c3)B(O)OC4)nn2)cc1
1610 nM	33.2 nM	270 nM	49.2 nM	300 nM	6	6			OB1OCc2ccc(-n3cc(CSc4ccccc4)nn3)cc21
1380 nM	29.1 nM	205 nM	56.2 nM	343 nM					OB1OCc2ccc(-n3cc(COc4ccccc4)nn3)cc21
1180 nM	122 nM	362 nM	262 nM	740 nM					OB1OCc2ccc(-n3cc(-c4ccccc4)nn3)cc21
928 nM	145 nM	873 nM	141 nM	1090 nM					OCc1cn(-c2ccc3c(c2)B(O)OC3)nn1
749 nM	114 nM	310 nM	67.5 nM	505 nM					O=C(O)c1cccc(-c2cn(-c3ccc4c(c3)B(O)OC4)nn2)c1
497 nM	70.4 nM	494 nM	81.7 nM	1460 nM					OCCc1cn(-c2ccc3c(c2)B(O)OC3)nn1
